pEC50, pIC50: −log10 of the molar value. Calls of active or inactive are those of the source. The rule behind the calls is not given here.
Key:
Mus musculus [1] = test: Antiinflammatory activity in A/J mouse assessed as inhibition of LPS-induced airway elastance provoked by methacholine at 45 umol/kg, po administered 1 hr prior to LPS-challenge measured after 18 hrs relative to vehicle-treated control; format: functional
Mus musculus [2] = test: Antiinflammatory activity in A/J mouse assessed as inhibition of LPS-induced airway resistance provoked by methacholine at 45 umol/kg, po administered 1 hr prior to LPS-challenge measured after 18 hrs relative to vehicle-treated control; format: functional
Mus musculus [3] = test: Antiinflammatory activity in A/J mouse assessed as inhibition of eosinophils accumulation in bronchoalveolar space at 45 umol/kg, po administered 1 hr prior to LPS-challenge measured after 18 hrs relative to vehicle-treated control; format: functional, organism-based; details: Lung
Mus musculus [4] = test: Antiinflammatory activity in A/J mouse assessed as inhibition of mononuclear cell accumulation in bronchoalveolar space at 45 umol/kg, po administered 1 hr prior to LPS-challenge measured after 18 hrs relative to vehicle-treated control; format: functional, organism-based; details: Lung
Mus musculus [5] = test: Antiinflammatory activity in A/J mouse assessed as inhibition of neutrophil accumulation in bronchoalveolar space at 45 umol/kg, po administered 1 hr prior to LPS-challenge measured after 18 hrs relative to vehicle-treated control; format: functional; details: Lung
Mus musculus [6] = test: Antiinflammatory activity in A/J mouse assessed as inhibition of leukocyte accumulation in bronchoalveolar space at 45 umol/kg, po administered 1 hr prior to LPS-challenge measured after 18 hrs relative to vehicle-treated control; format: functional; details: Lung
Mus musculus [7] = test: Antiinflammatory activity in A/J mouse lung assessed as inhibition of LPS-induced IL6 production at 45 umol/kg, po administered 1 hr prior to LPS-challenge measured after 18 hrs relative to vehicle-treated control; format: functional
Mus musculus [8] = test: Antiinflammatory activity in A/J mouse lung assessed as inhibition of LPS-induced TNFalpha production at 45 umol/kg, po administered 1 hr prior to LPS-challenge measured after 18 hrs relative to vehicle-treated control; format: functional
PBMC = test: Antiinflammatory activity in human PBMC assessed as inhibition of LPS-induced TNFalpha production after 24 hrs by ELISA; format: functional, cell-based
Mus musculus [9] = test: Proemetic activity in A/J mouse assessed as reversal of xylazine/katamine-induced anesthesia at 1 to 50 umol/kg, sc administered 30 mins prior xylazine/ketamine-administration; format: ADME, organism-based; details: in vivo, 0.5 h
[10] = Inhibition of bovine PDE4 using [3H]cAMP as substrate; parameters: species or system Bos taurus

## COc1ccc(C2CNC(=O)C2)cc1OC1CCCC1 (stereo unspecified) [ROLIPRAM]
Mus musculus [1]
  inhibition in vivo at 45 µmol/kg: 96%
Mus musculus [2]
  inhibition in vivo at 45 µmol/kg: 95%
Mus musculus [3]
  inhibition: Active
Mus musculus [4]
  inhibition: Active
Mus musculus [5]
  inhibition in vivo at 45 µmol/kg: 70%
Mus musculus [6]
  inhibition in vivo at 45 µmol/kg: 70%
Mus musculus [7]
  inhibition in vivo at 45 µmol/kg: 54%
Mus musculus [8]
  inhibition in vivo at 45 µmol/kg: 69%
PBMC
  pEC50: 6.89
Mus musculus [9]
  Activity: Toxic
[10]
  pIC50: 6.10

From ChEMBL document CHEMBL2169806, “Design, synthesis, and pharmacological evaluation of N-acylhydrazones and novel conformationally constrained compounds as selective and potent orally active phosphodiesterase-4 inhibitors” (J Med Chem, 2012)
